Series [1] can be described thus: In vivo pharmacokinetic study in mice. The following applies: male CD1 mice; for F: oral bioavailability, Oral Administration (20 mg/kg) vs Intravenous Injection (2 mg/kg); for clearance / half-life / AUC(0-t): mouse, plasma. As to the method:
In vivo pharmacokinetic study
The pharmacokinetic behaviors of Example 1 and Example 15 in mice were studied using the following experimental protocol to evaluate their pharmacokinetic characteristics.
The mice had free access to food and water before the test.
Approximately 0.03 mL of venous blood was collected from the dorsal metatarsal vein of each mouse separately after 0.033 h, 0.083 h, 0.25 h, 0.5 h, 1 h, 2 h, 4 h, 8 h, and 24 h since intravenous injection. The blood was placed in an EDTA-K2 tube and centrifuged for 5 min at 4000 g and 4°C. The plasma was separated. The concentration of the compound in the plasma was determined through liquid chromatography-tandem mass spectrometry.
Approximately 0.03 mL of venous blood was collected from the dorsal metatarsal vein of each mouse separately after 0.083 h, 0.25 h, 0.5 h, 1 h, 2 h, 4 h, 8 h, and 24 h since oral administration. The blood was placed in an EDTA-K2 tube and centrifuged for 5 min at 4000 g and 4°C. The plasma was separated. The concentration of the compound in the plasma was determined through liquid chromatography-tandem mass spectrometry.

Another series concerns the target T1, IRAK4 (Homo sapiens, UniProt Q9NWZ3).
T1 construct: expressed in transfected cells; host or cells: THP1 (THP1-HIBiT-IRAK4 engineered line)
T1 sequence (Q9NWZ3 1-460): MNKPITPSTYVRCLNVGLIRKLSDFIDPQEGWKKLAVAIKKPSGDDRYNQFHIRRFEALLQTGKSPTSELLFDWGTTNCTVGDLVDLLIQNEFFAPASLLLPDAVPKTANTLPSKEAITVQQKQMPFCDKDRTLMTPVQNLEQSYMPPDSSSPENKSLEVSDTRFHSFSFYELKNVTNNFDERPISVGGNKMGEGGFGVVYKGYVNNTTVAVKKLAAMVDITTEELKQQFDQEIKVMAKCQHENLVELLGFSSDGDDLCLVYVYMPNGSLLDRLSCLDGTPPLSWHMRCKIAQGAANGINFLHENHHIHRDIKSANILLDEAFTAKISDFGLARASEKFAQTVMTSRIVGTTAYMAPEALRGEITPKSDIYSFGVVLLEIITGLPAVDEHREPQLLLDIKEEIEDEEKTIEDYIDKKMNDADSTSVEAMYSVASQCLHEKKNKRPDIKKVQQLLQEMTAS
As to the kind of experiment: HiBiT-based intracellular degradation assay of THP1-HIBiT-IRAK4 cells. Type of series: cell-based. The following applies: half-maximal degradation concentration of IRAK4 protein, 24 h incubation. As to the method: HiBiT-based intracellular degradation assay of THP1-HIBiT-IRAK4 cells
THP1-HIBiT-IRAK4 cells were cultured in RPMI 1640 medium supplemented with 10% fetal bovine serum (FBS) and 1% penicillin-streptomycin (PS) (37°C and 5% CO2). The THP1-HIBiT-IRAK4 cells were inoculated in a 384-well plate at 5000 cells/40 µL/well. Compound solutions with different concentrations were added at 40 nL/well and incubated for 24 h at 37°C in 5% CO2. HiBiT lysis detection reagents were added to the wells, the plate was incubated for 30 min at room temperature, and luminescence values were read on Envision. [formula]
The DC50 (half-maximal degradation concentration) of each compound was obtained using XLfit software and the following nonlinear fitting equation: Y = bottom + (top−bottom)/(1+10^(∧)((LogDC50−X)×Hillslope)). [formula]
X denotes a log value of the compound concentration.
Y denotes the degradation rate.
Table 1 lists the results of DC50 values of IRAK4 protein degradation. […]

Series [2] is described as follows: Liver microsomal stability assay (dog). The format is in vitro ADME. The following applies: Dog liver microsomes 0.5 mg/mL, NADPH and UDPGA, 1 µM compound. As to the method:
(§1) Liver microsomal stability assay
(§2) Microsomes were stored in a -80°C refrigerator, thawed in a 37°C water bath before use, and placed on ice after thawing. All other reagents were purchased from local suppliers.
(§3) In step 1, a reaction system was configured as follows:
(§4) In step 2, 40 µL of 10 mM NADPH solution and 40 µL of 20 mM UDPGA solution were added to the above reaction system, where the final concentrations of NADPH and UDPGA were 1 mM and 2 mM, respectively. 80 µL of ultrapure water was used as negative control to replace the NADPH and UDPGA solutions. The reaction system was pre-incubated for 10 min in a 37°C water bath. […]
(§5) All data calculations were performed using Microsoft Excel software. Peak areas were determined from extracted ion chromatograms and used for calculating the remaining percentage at each time point.
(§6) The remaining percentage was calculated by the following formula: remaining percentage (%) = (peakarearatiotime point/peakarearatio0 min) × 100. […]
(§7) An elimination rate constant (k) was determined through linear fitting of a natural logarithm of the remaining percentage of a parent drug versus time.
(§8) The half-life t1/2 was calculated from the elimination rate constant: t1/2 = 0.693/k.
(§9) The in vitro intrinsic clearance (µL/min/mg) was calculated by the following formula: invitroCLint = kV/N. [formula] […]
For orientation: Microsomes from liver hold many membrane-bound enzymes, among them those of drug oxidation.

Series [3] is described as follows: Liver microsomal stability assay (human). The note with it: Human liver microsomes 0.5 mg/mL, NADPH and UDPGA, 1 µM compound. The format is in vitro ADME. As to the method: as §1, §2, §3, §4, §5, §6, §7, §8, §9
Series [4] is described as follows: Liver microsomal stability assay (mouse). The format is in vitro ADME. The note with it: Mouse liver microsomes 0.5 mg/mL, NADPH and UDPGA, 1 µM compound. The method, then:
as §1, §2, §3, §4, §5, §6, §7, §8, §9

Series [5] in a line: Liver microsomal stability assay (rat). Type of series: in vitro ADME. The note with it: Rat liver microsomes 0.5 mg/mL, NADPH and UDPGA, 1 µM compound. As to the method:
as §1, §2, §3, §4, §5, §6, §7, §8, §9

Series [6] is described as follows: Liver microsomal stability assay (monkey). Type of series: in vitro ADME. The note with it: Monkey liver microsomes 0.5 mg/mL, NADPH and UDPGA, 1 µM compound. As to the method: as §1, §2, §3, §4, §5, §6, §7, §8, §9
Setting [7] is: Intravenous Injection (2 mg/kg).

The source of these data is patent publication EP4748840A1, “IMIDAZO[1,2-A]PYRIDINE TYPE IRAK DEGRADATION AGENT AND USE THEREOF” (TAINUORUI (TIANJIN) BIOTECHNOLOGY CO., LTD, priority 2023, dated 2025).

As usually defined, the clearance is the volume of plasma or blood freed of the substance per unit of time. A word on the half-life: it is how long it takes for the measured level to halve. As usually defined, the AUC(0-t) is the area under the concentration-time curve up to a stated or last time point. For orientation: DC50 means the midpoint of the concentration-degradation curve. One may read the microsomal CLint as a measure of how fast metabolising enzymes remove a compound, apart from limits set by blood flow.

The structures appear in SMILES notation.

Consider `CC(C)(O)c1cc2nc(C3CCN(CC4CCN(c5ccc6c(c5)C(=O)N(C5CCC(=O)NC5=O)C6=O)CC4)CC3)cn2cc1NC(=O)c1cccc(C(F)(F)F)n1` (centres unmarked) [Example 1], for which the F in series [1] was found to be 12.1%. In series [1] (setting [7]), this compound gave a clearance of 59.5 mL/min/kg, a half-life of 7.88 h and an AUC(0-t) of 550 ng·h/mL. In series [1] (Oral Administration (20 mg/kg)), this compound had a half-life of 6.81 h and an AUC(0-t) of 626 ng·h/mL. Further, half-maximal degradation on IRAK4 (DC50) was put at 4.53 nM.

For `CC(C)(O)c1cc2nc(C3CCN(CC4CCN(c5cc6c(cc5F)C(=O)N(C5CCC(=O)NC5=O)C6=O)CC4)CC3)cn2cc1NC(=O)c1cccc(C(F)(F)F)n1` (centres unmarked) [Example 15, N-(2-(1-((1-(2-(2,6-dioxopiperidin-3-yl)-6-fluoro-1,3-dioxoisoindolin-5-yl)piperidin-4-yl)methyl)piperidin-4-yl)-7-(2-hydroxypropan-2-yl)imidazo[1,2-a]pyridin-6-yl)-6-(trifluoromethyl)pyridine-2-carboxamide], the half-life at 1 µM is 4.33 h in series [2]; 6.68 h in series [3]; 2.39 h in series [4]; 2.23 h in series [5]; 3.2 h in series [6]. Also, the microsomal CLint at 1 µM worked out at 5.34 µL/min/mg in series [2]; 3.46 µL/min/mg in series [3]; 9.67 µL/min/mg in series [4]; 10.4 µL/min/mg in series [5]; 7.22 µL/min/mg in series [6]. In addition, in series [1], the F came to 61.7%. This compound also gave a clearance in series [1] (setting [7]) of 37.2 mL/min/kg. Moreover, the half-life was 8.05 h in series [1] (setting [7]) and 8.01 h in series [1] (Oral Administration (20 mg/kg)). In addition, the exposure AUC(0-t) in series [1] (setting [7]) turned out to be 870 ng·h/mL; in series [1] (Oral Administration (20 mg/kg)) it was 4760 ng·h/mL. For the same compound, on IRAK4, it took 1.62 nM to reach half-maximal degradation (DC50).

Consider `CC(C)(O)c1cc2nc(C3CCN(CCN4CCN(c5cc6c(cc5F)C(=O)N(C5CCC(=O)NC5=O)C6=O)CC4)CC3)cn2cc1NC(=O)c1cccc(C(F)(F)F)n1` (centres unmarked) [Example 22, N-(2-(1-(2-(4-(2-(2,6-dioxopiperidin-3-yl)-6-fluoro-1,3-dioxoisoindolin-5-yl)piperazin-1-yl)ethyl)piperidin-4-yl)-7-(2-hydroxypropan-2-yl)imidazo[1,2-a]pyridin-6-yl)-6-(trifluoromethyl)pyridine-2-carboxamide], for which, on IRAK4, the half-maximal degradation concentration (DC50) was found to be 4.76 nM.

For `CC(C)(O)c1cc2nc(C3CCN(CC4CCN(c5cc6c(cc5F)C(=O)N(C5CCC(=O)NC5=O)C6)CC4)CC3)cn2cc1NC(=O)c1cccc(C(F)(F)F)n1` (centres unmarked) [Example 23, N-(2-(1-((1-(2-(2,6-dioxopiperidin-3-yl)-6-fluoro-1-oxoisoindolin-5-yl)piperidin-4-yl)methyl)piperidin-4-yl)-7-(2-hydroxypropan-2-yl)imidazo[1,2-a]pyridin-6-yl)-6-(trifluoromethyl) pyridine-2-carboxamide], at IRAK4, it took 0.95 nM to reach half-maximal degradation (DC50).

On IRAK4, `CC(C)(O)c1cc2nc(C3CCN(CC4C5CN(c6ccc7c(c6)C(=O)N(C6CCC(=O)NC6=O)C7=O)CC45)CC3)cn2cc1NC(=O)c1cccc(C(F)(F)F)n1` (centres unmarked) [Example 24, N-(2-(1-((3-(2-(2,6-dioxopiperidin-3-yl)-1,3-dioxoisoindolin-5-yl)-3-azabicyclo[3.1.0]hexan-6-yl)methyl)piperidin-4-yl)-7-(2-hydroxypropan-2-yl)imidazo[1,2-a]pyridin-6-yl)-6-(trifluoromethyl)pyridine-2-carboxamide] yielded a DC50 of 1.87 nM.

On IRAK4, `CC(C)(O)c1cc2nc(C3CCN(CC4CCN(c5cc6c(cc5F)C(=O)N([C@@H]5CCC(=O)NC5=O)C6=O)CC4)CC3)cn2cc1NC(=O)c1cccc(C(F)(F)F)n1` [Example 25, (R)-N-(2-(1-((1-(2-(2,6-dioxopiperidin-3-yl)-6-fluoro-1,3-dioxoisoindolin-5-yl)piperidin-4-yl)methyl)piperidin-4-yl)-7-(2-hydroxypropan-2-yl)imidazo[1,2-a]pyridin-6-yl)-6-(trifluoromethyl)pyridine-2-carboxamide] yielded a 50% degradation concentration (DC50) of 12.8 nM.

As to `CC(C)(O)c1cc2nc(C3CCN(CC4CCN(c5cc6c(cc5F)C(=O)N([C@H]5CCC(=O)NC5=O)C6=O)CC4)CC3)cn2cc1NC(=O)c1cccc(C(F)(F)F)n1` [Example 26, (S)-N-(2-(1-((1-(2-(2,6-dioxopiperidin-3-yl)-6-fluoro-1,3-dioxoisoindolin-5-yl)piperidin-4-yl)methyl)piperidin-4-yl)-7-(2-hydroxypropan-2-yl)imidazo[1,2-a]pyridin-6-yl)-6-(trifluoromethyl)pyridine-2-carboxamide], half-maximal degradation at IRAK4 (DC50) was put at 2.15 nM.
